In patent publication US9283166B2, “Modulation of melanogenesis by modification of tyrosinase by palmitoylation” (ELC Management LLC, priority 2012, dated 2016):

How the values were obtained:
[1] = system: tyrosinase; assay: Total tyrosinase protein in NHEM by Western-blot; assay type: cell-based, human; conditions: 24 hours, various concentrations, vs. DMSO, normalized by tubulin
Description: (§1) Normal human epidermal melanocytes (NHEM) were incubated with 2-bromopalmitate (2-BP) for 24 hours, and total tyrosinase was determined by Western-blot (WB) using the mouse monoclonal anti-tyrosinase IgG antibody T311 (1:120 dilution). Total tyrosinase protein level was normalized by tubulin. Palmitoylated tyrosinase was evaluated by acyl-RAC and WB. The results shown in FIGS. 2A and 2B, are the average of three determinations SE. *p<0.05 vs. DMSO.

[2] = system: tyrosinase; assay: Palmitoylated tyrosinase in NHEM by acyl-RAC and WB; assay type: cell-based, human; conditions: 24 hours, vs. DMSO
Description: as §1

[3] = system: NHEM; assay: Melanin content in NHEM; assay type: cell-based, human; conditions: 48 hours, various concentrations, vs. DMSO
Description: (§2) NHEM were treated with indicated concentrations of 2-BP for 48 hours. Melanin content (closed bar) and cell number (open bar) were measured. Values are the average of three determinations±SE. *p<0.05 vs. DMSO. Macroscopic views of cell pellet were taken by digital camera (FIG. 3A). Reconstructed human skin models (Asian type) were incubated with 25 μM 2-BP for 17 days. Eumelanin (EM) and pheomelanin (PM) contents were determined and calculated by following formula. EM=PTCA*25, PM=4−AHP*9. Values are the average of three determinations±SE.*p<0.05 vs. DMSO. Macroscopic views of a human skin model after 17 days were taken by digital camera (FIG. 3B).

[4] = system: Reconstructed human skin models (Asian type); assay: Melanin content in reconstructed human skin model; assay type: cell-based; conditions: 25 μM, 17 days, vs. DMSO
Description: as §2

[5] = system: Tyrosinase mRNA; assay: Tyrosinase mRNA by real time quantitative PCR in NHEM; assay type: cell-based, human; conditions: 6 or 24 hours
Description: (§3) NHEM were cultured with 2-BP for 6 or 24 hours. Tyrosinase mRNA levels were analyzed by real time quantitative PCR. The results shown are the average of three determinations±SE.*p<0.05 vs. DMSO (FIG. 4A). NHEM were incubated with 5 μM 2-BP for 24 hours. Glycosidase digestion treatment by endo H and WB analysis on mature and immature form of tyrosinase were conducted by WB (FIG. 4B).

[6] = system: tyrosinase; assay: Glycosylation of tyrosinase (endo H digestion and WB) in NHEM; assay type: cell-based, human; conditions: 5 μM, 24 hours
Description: as §3

[7] = system: tyrosinase; assay: Degradation of tyrosinase in cycloheximide-treated NHEM (WB); assay type: cell-based, human; conditions: 4 hours
Description: NHEM were treated with 1 μg/ml cycloheximide, protein synthesis inhibitor, and with (▪) or without (⋄) 10 μM 2-BP for 4 hours. Tyrosinase levels were analyzed by WB using the mouse monoclonal anti-tyrosinase IgG antibody T311 (1:120 dilution). The band intensities of tyrosinase were normalized by the band intensities of Glyceraldehyde 3-phosphate dehydrogenase (GAPDH) as internal control for each condition. The results shown are the average of three determinations±SE.*p<0.05 vs. DMSO (FIGS. 5A and 5B).

[8] = system: tyrosinase; assay: Ubiquitination of tyrosinase in NHEM (IP and WB); assay type: cell-based, human; conditions: 5 μM, 24 hours
Description: NHEM were treated with 5 μM 2-BP for 24 hours. Equal protein amounts of cell lysate were used for IP by tyrosinase, and the ubiquitinated (UB) level of tyrosinase was analyzed by WB using anti-UB antibody.

[9] = system: NHEM (Asian); assay: Melanin synthesis in NHEM with PP2 or KA, with or without 2-BP; assay type: cell-based, human; conditions: 120 hours
Description: NHEM (Asian) were incubated for 120 hours in the presence of PP2, with or without 2-BP. […] Mean±S.E. (N=3)*p<0.05, vs. control. Kojic Acid (KA) was used as a positive control.

[10] = target: T1, Palmitoyl:protein thioesterase (PPT1) (Homo sapiens, UniProt P50897); conditions: cited from earlier work; for PPT1 inhibitory activity: result in words
T1 sequence (P50897 28-306): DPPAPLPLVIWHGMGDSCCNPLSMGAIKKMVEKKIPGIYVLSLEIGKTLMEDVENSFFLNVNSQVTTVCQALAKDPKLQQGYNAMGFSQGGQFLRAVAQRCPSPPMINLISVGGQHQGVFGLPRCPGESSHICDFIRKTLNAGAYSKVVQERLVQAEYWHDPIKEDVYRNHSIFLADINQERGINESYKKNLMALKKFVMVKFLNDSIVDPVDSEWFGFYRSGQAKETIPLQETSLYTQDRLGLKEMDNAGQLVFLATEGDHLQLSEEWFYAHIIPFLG

CCCCCCCCCCCCCCC(Br)C(=O)O (stereo not drawn) [2-BP, 2-bromopalmitate]
total amount of tyrosinase protein per cell [1]: statistically significant increase
amount of palmitoylated tyrosinase [2]: decreased
melanin content per cell [3]: statistically significant increase
total melanin: eumelanin (EM) and pheomelanin (PM) content of the tissue [4]: statistically significant increase
tyrosinase mRNA expression [5]: decrease
glycosylation of tyrosinase [6]: no effect
degradation of tyrosinase ([7]; 10 μM with 1 μg/ml cycloheximide): suppresses the degradation of tyrosinase
ubiquitination of tyrosinase [8]: no effect

O=c1cc(CO)occ1O [Kojic acid, Kojic Acid]
melanin synthesis ([9]; 2-BP-treated cells): mildly inhibited melanin synthesis
melanin synthesis ([9]; cells not treated with 2-BP): mildly inhibited melanin synthesis

C[C@@H]1C[C@@H]([C@H](O)CC2CC(=O)NC(=O)C2)C(=O)[C@@H](C)C1 [cycloheximide]
tyrosinase levels ([7]; 1 μg/ml cycloheximide): decreased

AcGDap(Palm)GGR7
PPT1 inhibitory activity [10]: strong PPT1 inhibitors

GGC(Pal) VKIKK [CS8]
PPT1 inhibitory activity [10]: comparable inhibitory activity to CS38

NBD-αAGDap(Pal)VKIKK [CS38]
inhibitor potency relative to Dap1 ([10]; PPT1 inhibition, compared with Dap1): 3 fold
IC50 ([10]; PPT1 inhibition): 2000 nM
